From paper PMC8429728, “TNK1 is a ubiquitin-binding and 14-3-3-regulated kinase that can be targeted to block tumor growth” (Nature Communications, 2021)
Like-named read-outs stand apart in the source and are kept apart here.

What was measured:
Test in all cases: biochemical
Parameters in all cases: Reaction Biology 371-kinase panel at Km ATP, per cent enzyme activity relative to DMSO, single dose in duplicate
Settings in all cases: duplicate measurements, Km ATP
TAOK2/TAO1 = TAOK2/TAO1 (Homo sapiens, UniProt Q9UL54)
Summary of the method: (§1)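 Compound screened at 300 nM in vitro across a 371-kinase panel. Enzyme activity expressed as % of DMSO controls. IC50 values came from sigmoidal variable-slope dose-response fits with the bottom fixed at 0.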

MYLK3 = MYLK3 (Homo sapiens, UniProt Q32MK0)
Summary of the method: as §1

VRK2 = VRK2 (Homo sapiens, UniProt Q86Y07)
Summary of the method: as §1

GRK7 = GRK7 (Homo sapiens, UniProt Q8WTQ7)
Summary of the method: as §1

PAK3 = PAK3 (Homo sapiens, UniProt O75914)
Summary of the method: as §1

CK1d = molecular target: T1, CK1d (Homo sapiens, UniProt P48730)
T1 construct: gene CSNK1D
Summary of the method: as §1

ZAP70 = ZAP70 (Homo sapiens, UniProt P43403)
Summary of the method: as §1

ALK6/BMPR1B = ALK6/BMPR1B (Homo sapiens, UniProt O00238)
Summary of the method: as §1

SYK = SYK (Homo sapiens, UniProt P43405)
Summary of the method: as §1

ABL1 = ABL1 (Homo sapiens, UniProt P00519)
Summary of the method: as §1

LCK2/ICK = molecular target: T2, LCK2/ICK (Homo sapiens, UniProt Q9UPZ9)
T2 construct: gene CILK1
Summary of the method: as §1

CHK1 = molecular target: T3, CHK1 (Homo sapiens, UniProt O14757)
T3 construct: gene CHEK1
Summary of the method: as §1

NEK9 = NEK9 (Homo sapiens, UniProt Q8TD19)
Summary of the method: as §1

Aurora B = molecular target: T4, Aurora B (Homo sapiens, UniProt Q96GD4)
T4 construct: gene AURKB
Summary of the method: as §1

CSK = CSK (Homo sapiens, UniProt P41240)
Summary of the method: as §1

PDK1/PDPK1 = PDK1/PDPK1 (Homo sapiens, UniProt O15530)
Summary of the method: as §1

ULK2 = ULK2 (Homo sapiens, UniProt Q8IYT8)
Summary of the method: as §1

ZAK/MLTK = molecular target: T5, ZAK/MLTK (Homo sapiens, UniProt Q9NYL2)
T5 construct: gene MAP3K20
Summary of the method: as §1

ERN1/IRE1 = ERN1/IRE1 (Homo sapiens, UniProt O75460)
Summary of the method: as §1

MSSK1/STK23 = molecular target: T6, MSSK1/STK23 (Homo sapiens, UniProt Q9UPE1)
T6 construct: gene SRPK3
Summary of the method: as §1

[1] = read-out: % Enzyme Activity (relative to DMSO controls) / TP-0005801 (0.3µM) / Data 1
[2] = read-out: % Enzyme Activity (relative to DMSO controls) / TP-0005801 (0.3µM) / Data 2

PAK3, sequence (O75914 whole entry): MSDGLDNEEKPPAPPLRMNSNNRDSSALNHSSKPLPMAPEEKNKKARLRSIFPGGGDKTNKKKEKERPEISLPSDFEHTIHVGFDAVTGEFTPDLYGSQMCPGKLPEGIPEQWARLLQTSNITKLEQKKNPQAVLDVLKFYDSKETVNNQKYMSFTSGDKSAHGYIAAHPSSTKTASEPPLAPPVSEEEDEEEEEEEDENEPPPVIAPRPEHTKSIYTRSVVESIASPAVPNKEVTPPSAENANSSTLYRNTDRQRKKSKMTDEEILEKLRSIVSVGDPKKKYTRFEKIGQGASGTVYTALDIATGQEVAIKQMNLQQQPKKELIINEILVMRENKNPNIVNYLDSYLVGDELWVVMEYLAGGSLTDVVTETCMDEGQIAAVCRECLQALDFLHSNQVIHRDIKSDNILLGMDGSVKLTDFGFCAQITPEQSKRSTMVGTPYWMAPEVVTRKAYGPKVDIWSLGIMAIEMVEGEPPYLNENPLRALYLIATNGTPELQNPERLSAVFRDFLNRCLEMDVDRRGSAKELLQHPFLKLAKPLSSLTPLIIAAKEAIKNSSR
T6 sequence (Q9UPE1 whole entry): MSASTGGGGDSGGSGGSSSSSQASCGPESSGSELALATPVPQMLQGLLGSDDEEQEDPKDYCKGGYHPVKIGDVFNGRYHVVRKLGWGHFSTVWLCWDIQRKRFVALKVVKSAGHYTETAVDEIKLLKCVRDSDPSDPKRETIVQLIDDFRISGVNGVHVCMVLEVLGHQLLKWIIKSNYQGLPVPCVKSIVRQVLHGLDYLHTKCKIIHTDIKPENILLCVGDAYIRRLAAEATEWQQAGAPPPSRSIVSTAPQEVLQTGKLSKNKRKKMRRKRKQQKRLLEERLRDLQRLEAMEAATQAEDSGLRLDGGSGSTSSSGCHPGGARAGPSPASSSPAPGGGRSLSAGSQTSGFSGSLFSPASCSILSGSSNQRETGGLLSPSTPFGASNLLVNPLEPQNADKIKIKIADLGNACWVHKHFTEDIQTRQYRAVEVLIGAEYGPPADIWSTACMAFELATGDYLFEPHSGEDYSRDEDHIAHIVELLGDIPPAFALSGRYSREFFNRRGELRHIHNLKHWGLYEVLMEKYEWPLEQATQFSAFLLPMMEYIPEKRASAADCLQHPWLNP
T2 sequence (Q9UPZ9 whole entry): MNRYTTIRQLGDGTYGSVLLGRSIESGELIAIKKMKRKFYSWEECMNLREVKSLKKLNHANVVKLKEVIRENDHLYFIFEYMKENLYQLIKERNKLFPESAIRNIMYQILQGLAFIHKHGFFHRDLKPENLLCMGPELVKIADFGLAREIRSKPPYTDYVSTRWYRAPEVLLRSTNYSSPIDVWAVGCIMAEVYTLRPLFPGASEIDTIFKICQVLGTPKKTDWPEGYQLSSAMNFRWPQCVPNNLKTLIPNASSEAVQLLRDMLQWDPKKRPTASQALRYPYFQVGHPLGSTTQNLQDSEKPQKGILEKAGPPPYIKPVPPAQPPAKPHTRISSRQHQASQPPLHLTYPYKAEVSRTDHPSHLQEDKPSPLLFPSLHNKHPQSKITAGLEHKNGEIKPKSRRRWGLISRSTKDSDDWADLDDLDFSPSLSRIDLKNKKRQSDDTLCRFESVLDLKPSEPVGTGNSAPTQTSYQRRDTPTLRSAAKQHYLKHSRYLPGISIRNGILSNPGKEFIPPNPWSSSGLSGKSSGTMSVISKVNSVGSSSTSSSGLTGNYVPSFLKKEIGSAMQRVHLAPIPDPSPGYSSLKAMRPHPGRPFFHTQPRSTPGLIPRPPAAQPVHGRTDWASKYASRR
ERN1/IRE1, sequence (O75460 whole entry): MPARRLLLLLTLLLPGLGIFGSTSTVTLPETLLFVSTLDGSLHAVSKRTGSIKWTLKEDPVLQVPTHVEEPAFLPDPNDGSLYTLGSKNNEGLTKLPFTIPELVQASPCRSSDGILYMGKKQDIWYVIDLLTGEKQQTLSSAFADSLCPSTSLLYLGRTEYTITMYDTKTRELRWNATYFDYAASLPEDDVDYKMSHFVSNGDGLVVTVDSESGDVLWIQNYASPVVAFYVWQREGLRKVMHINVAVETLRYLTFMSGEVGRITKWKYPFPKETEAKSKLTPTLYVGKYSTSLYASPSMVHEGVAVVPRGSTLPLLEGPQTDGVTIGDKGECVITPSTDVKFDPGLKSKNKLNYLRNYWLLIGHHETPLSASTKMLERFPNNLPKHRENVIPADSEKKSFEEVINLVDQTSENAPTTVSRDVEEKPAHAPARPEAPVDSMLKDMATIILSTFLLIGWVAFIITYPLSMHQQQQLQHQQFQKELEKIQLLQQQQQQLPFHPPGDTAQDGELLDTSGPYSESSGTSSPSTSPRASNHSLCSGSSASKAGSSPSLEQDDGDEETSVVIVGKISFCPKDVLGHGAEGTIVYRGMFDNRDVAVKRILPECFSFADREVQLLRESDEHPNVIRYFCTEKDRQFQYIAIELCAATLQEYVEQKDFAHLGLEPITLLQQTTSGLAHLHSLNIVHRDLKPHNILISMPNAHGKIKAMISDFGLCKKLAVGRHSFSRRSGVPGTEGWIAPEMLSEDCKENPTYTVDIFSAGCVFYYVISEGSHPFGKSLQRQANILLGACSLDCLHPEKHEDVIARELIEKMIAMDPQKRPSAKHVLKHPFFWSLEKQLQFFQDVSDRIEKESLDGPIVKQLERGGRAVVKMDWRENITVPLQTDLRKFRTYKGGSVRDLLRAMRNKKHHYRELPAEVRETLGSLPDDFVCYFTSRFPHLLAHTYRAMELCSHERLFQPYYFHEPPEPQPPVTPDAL
T4 sequence (Q96GD4 whole entry): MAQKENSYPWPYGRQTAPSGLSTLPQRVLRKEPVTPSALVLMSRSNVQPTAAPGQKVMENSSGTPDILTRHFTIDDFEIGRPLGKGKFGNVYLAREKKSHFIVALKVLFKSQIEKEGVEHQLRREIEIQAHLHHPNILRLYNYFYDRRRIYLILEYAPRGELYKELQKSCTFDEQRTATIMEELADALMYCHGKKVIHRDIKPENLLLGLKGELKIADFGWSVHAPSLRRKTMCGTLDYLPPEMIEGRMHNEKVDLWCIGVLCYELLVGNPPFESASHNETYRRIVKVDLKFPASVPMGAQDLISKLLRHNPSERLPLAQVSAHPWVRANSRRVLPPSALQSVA
NEK9, sequence (Q8TD19 whole entry): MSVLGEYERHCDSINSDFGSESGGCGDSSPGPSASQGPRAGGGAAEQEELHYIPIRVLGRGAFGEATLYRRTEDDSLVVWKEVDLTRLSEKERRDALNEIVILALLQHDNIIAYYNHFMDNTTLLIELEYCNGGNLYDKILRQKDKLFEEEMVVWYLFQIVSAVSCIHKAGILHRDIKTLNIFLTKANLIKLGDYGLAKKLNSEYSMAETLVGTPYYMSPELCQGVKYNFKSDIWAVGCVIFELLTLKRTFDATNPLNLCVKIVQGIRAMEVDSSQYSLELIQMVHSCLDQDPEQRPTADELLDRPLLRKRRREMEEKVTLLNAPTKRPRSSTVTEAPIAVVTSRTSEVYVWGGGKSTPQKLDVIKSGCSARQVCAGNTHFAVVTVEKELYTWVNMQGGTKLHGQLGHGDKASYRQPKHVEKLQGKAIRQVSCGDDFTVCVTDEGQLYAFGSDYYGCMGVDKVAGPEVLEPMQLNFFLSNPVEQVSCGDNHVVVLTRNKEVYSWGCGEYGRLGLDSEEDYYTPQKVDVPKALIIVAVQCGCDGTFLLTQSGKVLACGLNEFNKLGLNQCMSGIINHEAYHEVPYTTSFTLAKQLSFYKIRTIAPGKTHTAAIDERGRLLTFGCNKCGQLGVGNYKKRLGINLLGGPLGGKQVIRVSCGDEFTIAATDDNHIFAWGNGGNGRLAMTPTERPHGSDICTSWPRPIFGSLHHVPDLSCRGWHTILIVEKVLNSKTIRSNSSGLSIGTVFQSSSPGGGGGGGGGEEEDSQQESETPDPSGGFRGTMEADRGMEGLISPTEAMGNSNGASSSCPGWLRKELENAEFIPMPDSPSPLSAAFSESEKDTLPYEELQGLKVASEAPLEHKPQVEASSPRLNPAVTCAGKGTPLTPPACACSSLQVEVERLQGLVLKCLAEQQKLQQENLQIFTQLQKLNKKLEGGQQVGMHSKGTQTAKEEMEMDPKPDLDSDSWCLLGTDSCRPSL
T5 sequence (Q9NYL2 whole entry): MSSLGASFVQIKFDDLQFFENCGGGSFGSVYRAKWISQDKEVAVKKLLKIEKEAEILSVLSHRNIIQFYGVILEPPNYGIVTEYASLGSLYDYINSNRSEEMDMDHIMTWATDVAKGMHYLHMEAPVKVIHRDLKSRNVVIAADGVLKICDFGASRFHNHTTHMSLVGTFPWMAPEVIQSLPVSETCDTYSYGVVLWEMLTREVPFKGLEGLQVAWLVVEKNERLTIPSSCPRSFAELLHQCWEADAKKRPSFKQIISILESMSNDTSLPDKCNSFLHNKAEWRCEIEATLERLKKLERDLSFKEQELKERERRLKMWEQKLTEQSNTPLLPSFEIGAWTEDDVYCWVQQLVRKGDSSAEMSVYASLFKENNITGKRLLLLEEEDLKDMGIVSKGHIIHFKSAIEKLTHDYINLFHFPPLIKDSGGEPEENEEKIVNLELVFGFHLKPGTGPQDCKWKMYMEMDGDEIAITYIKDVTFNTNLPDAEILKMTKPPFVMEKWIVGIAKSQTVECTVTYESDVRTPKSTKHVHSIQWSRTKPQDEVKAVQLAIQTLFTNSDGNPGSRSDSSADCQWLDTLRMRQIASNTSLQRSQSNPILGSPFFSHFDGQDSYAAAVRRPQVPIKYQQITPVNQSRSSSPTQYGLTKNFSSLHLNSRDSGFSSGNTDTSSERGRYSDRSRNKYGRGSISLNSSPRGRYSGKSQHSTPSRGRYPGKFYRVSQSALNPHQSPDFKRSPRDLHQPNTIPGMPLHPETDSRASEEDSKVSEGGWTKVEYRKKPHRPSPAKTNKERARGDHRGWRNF

How did the remaining activity at 0.3 µM (TAOK2/TAO1; [1]) turn out when COc1cc(N2CCN(C)CC2)c(C)cc1Nc1ncc(Br)c(Nc2cccnc2N(C)C)n1 [TP-5801] was run?
The remaining activity at 0.3 µM was 86%.

And the remaining activity at 0.3 µM (TAOK2/TAO1; [2])?
The remaining activity at 0.3 µM was 84.4%.

What about the remaining activity at 0.3 µM (MYLK3; [1]) of the same compound?
The remaining activity at 0.3 µM was 110%.

What about the remaining activity at 0.3 µM (MYLK3; [2]) of the same compound?
Its remaining activity at 0.3 µM is 109%.

What about the remaining activity at 0.3 µM (VRK2; [1]) of the same compound?
Its remaining activity at 0.3 µM is 96%.

What about the remaining activity at 0.3 µM (VRK2; [2]) of the same compound?
The remaining activity at 0.3 µM was 93.9%.

What about the remaining activity at 0.3 µM (GRK7; [1]) of the same compound?
Its remaining activity at 0.3 µM is 105%.

What about the remaining activity at 0.3 µM (GRK7; [2]) of the same compound?
The remaining activity at 0.3 µM was 97.5%.

What about the remaining activity at 0.3 µM (PAK3; [1]) of the same compound?
The remaining activity at 0.3 µM was 99%.

And the remaining activity at 0.3 µM (PAK3; [2])?
The remaining activity at 0.3 µM was 97.9%.

And the remaining activity at 0.3 µM (CK1d; [1])?
The remaining activity at 0.3 µM was 101%.

What about the remaining activity at 0.3 µM (CK1d; [2]) of the same compound?
Its remaining activity at 0.3 µM is 98.4%.

And the remaining activity at 0.3 µM (ZAP70; [1])?
Its remaining activity at 0.3 µM is 95.5%.

And the remaining activity at 0.3 µM (ZAP70; [2])?
Its remaining activity at 0.3 µM is 91.3%.

And the remaining activity at 0.3 µM (ALK6/BMPR1B; [1])?
Its remaining activity at 0.3 µM is 97.9%.

What about the remaining activity at 0.3 µM (ALK6/BMPR1B; [2]) of the same compound?
The remaining activity at 0.3 µM was 97.6%.

And the remaining activity at 0.3 µM (SYK; [1])?
Its remaining activity at 0.3 µM is 77.6%.

And the remaining activity at 0.3 µM (SYK; [2])?
The remaining activity at 0.3 µM was 77.5%.

And the remaining activity at 0.3 µM (ABL1; [1])?
The remaining activity at 0.3 µM was 109%.

And the remaining activity at 0.3 µM (ABL1; [2])?
The remaining activity at 0.3 µM was 107%.

What about the remaining activity at 0.3 µM (LCK2/ICK; [1]) of the same compound?
Its remaining activity at 0.3 µM is 90.2%.

And the remaining activity at 0.3 µM (LCK2/ICK; [2])?
Its remaining activity at 0.3 µM is 87.9%.

What about the remaining activity at 0.3 µM (CHK1; [1]) of the same compound?
The remaining activity at 0.3 µM was 104%.

And the remaining activity at 0.3 µM (CHK1; [2])?
Its remaining activity at 0.3 µM is 101%.

And the remaining activity at 0.3 µM (NEK9; [1])?
Its remaining activity at 0.3 µM is 69.6%.

And the remaining activity at 0.3 µM (NEK9; [2])?
Its remaining activity at 0.3 µM is 68.6%.

And the remaining activity at 0.3 µM (Aurora B; [1])?
Its remaining activity at 0.3 µM is 86.7%.

What about the remaining activity at 0.3 µM (Aurora B; [2]) of the same compound?
The remaining activity at 0.3 µM was 83.9%.

What about the remaining activity at 0.3 µM (CSK; [1]) of the same compound?
The remaining activity at 0.3 µM was 92.6%.

What about the remaining activity at 0.3 µM (CSK; [2]) of the same compound?
Its remaining activity at 0.3 µM is 89.8%.

What about the remaining activity at 0.3 µM (PDK1/PDPK1; [1]) of the same compound?
The remaining activity at 0.3 µM was 89.9%.

What about the remaining activity at 0.3 µM (PDK1/PDPK1; [2]) of the same compound?
Its remaining activity at 0.3 µM is 89.6%.

What about the remaining activity at 0.3 µM (ULK2; [1]) of the same compound?
The remaining activity at 0.3 µM was 86.5%.

What about the remaining activity at 0.3 µM (ULK2; [2]) of the same compound?
The remaining activity at 0.3 µM was 82.4%.

What about the remaining activity at 0.3 µM (ZAK/MLTK; [1]) of the same compound?
The remaining activity at 0.3 µM was 103%.

What about the remaining activity at 0.3 µM (ZAK/MLTK; [2]) of the same compound?
Its remaining activity at 0.3 µM is 101%.

And the remaining activity at 0.3 µM (ERN1/IRE1; [1])?
The remaining activity at 0.3 µM was 83%.

And the remaining activity at 0.3 µM (ERN1/IRE1; [2])?
Its remaining activity at 0.3 µM is 82.7%.

What about the remaining activity at 0.3 µM (MSSK1/STK23; [1]) of the same compound?
Its remaining activity at 0.3 µM is 89.7%.

And the remaining activity at 0.3 µM (MSSK1/STK23; [2])?
The remaining activity at 0.3 µM was 88.8%.
